13 compounds from ChEMBL document CHEMBL1667852, “Isosteric replacement of the Z-enone with haloethyl ketone and E-enone in a resorcylic acid lactone series and biological evaluation” (Bioorg Med Chem Lett, 2011) can be followed below.

Active and inactive are the calls of the source. No cut-off for these calls is given here.

Assay [1] has as its target Platelet-derived growth factor receptor beta (Homo sapiens, UniProt P09619). Nature of the assay: Inhibition of human recombinant PDGFRbeta expressed in insect cells after 30 mins.
For assay [2], the target named is Mast/stem cell growth factor receptor Kit (Homo sapiens, UniProt P10721). Nature of the assay: Inhibition of human recombinant c-kit kinase in cell free system after 30 mins.
The test system of assay [3] is Jurkat. Nature of the assay: Antiproliferative activity against human Jurkat cells after 24 hrs by celltiter glo assay. On the technique in general: In ATP-based viability assays light output follows the ATP content of the culture.
Assay [4] has as its target Vascular endothelial growth factor receptor 2 (Homo sapiens, UniProt P35968). Nature of the assay: Inhibition of human recombinant VEGFR2 expressed in Sf9 cells after 60 mins.
Assay [5] relates to Jurkat. The experiment in a line: Antiproliferative activity against human Jurkat cells after 48 hrs by celltiter glo assay.
The target in assay [6] is Vascular endothelial growth factor receptor 1 (Homo sapiens, UniProt P17948). Nature of the assay: Inhibition of human recombinant VEGFR1 expressed in Sf9 cells after 10 mins.
Assay [7] has as its target Vascular endothelial growth factor receptor 3 (Homo sapiens, UniProt P35916). Nature of the assay: Inhibition of human recombinant VEGFR3 in cell free system after 90 mins.
In assay [8] the target is Dual specificity mitogen-activated protein kinase kinase 1 (Homo sapiens, UniProt Q02750). The experiment in a line: Inhibition of human recombinant MEK1 expressed in insect cells after 20 mins.
The target of assay [9] is Platelet-derived growth factor receptor alpha (Homo sapiens, UniProt P16234). The experiment in a line: Inhibition of human recombinant PDGFRalpha in cell free system after 60 mins.
The target in assay [10] is T1, Receptor-type tyrosine-protein kinase FLT3 (Homo sapiens, UniProt P36888).
T1 sequence (P36888 whole entry): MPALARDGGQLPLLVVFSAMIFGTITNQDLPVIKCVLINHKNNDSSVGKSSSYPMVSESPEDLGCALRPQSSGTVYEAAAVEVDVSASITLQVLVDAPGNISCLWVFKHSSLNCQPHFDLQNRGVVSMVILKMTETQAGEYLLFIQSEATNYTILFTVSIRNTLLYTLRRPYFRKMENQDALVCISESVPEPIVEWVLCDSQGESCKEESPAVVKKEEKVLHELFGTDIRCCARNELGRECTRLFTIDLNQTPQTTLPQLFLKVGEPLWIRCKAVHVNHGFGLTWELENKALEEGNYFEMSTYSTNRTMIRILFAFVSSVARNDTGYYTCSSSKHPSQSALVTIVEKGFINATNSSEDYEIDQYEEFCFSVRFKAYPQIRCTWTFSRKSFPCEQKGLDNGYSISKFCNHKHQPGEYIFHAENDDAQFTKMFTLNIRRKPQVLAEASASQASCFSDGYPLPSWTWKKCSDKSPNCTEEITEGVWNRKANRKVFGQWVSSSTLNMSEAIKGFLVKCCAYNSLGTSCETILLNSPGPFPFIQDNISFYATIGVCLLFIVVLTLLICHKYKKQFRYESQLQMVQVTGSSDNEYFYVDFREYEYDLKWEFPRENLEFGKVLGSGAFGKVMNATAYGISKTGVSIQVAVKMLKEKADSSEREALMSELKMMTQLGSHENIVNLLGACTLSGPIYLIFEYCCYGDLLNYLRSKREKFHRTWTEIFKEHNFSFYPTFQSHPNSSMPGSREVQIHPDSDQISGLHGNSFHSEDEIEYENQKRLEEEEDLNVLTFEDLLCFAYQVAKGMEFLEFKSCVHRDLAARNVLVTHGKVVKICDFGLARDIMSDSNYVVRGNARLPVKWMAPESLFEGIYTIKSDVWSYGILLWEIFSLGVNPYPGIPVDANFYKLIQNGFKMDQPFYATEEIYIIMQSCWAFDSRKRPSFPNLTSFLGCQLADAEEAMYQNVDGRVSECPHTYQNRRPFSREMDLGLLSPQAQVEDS
Nature of the assay: Inhibition of human recombinant FLT-3 kinase expressed in insect cells after 90 mins.

In assay [11] the target is Glycogen synthase kinase-3 alpha (Homo sapiens, UniProt P49840). The experiment in a line: Inhibition of human recombinant GSK3alpha in cell free system after 60 mins.
In assay [12] the target is Mitogen-activated protein kinase 1 (Homo sapiens, UniProt P28482). Nature of the assay: Inhibition of human recombinant ERK2 expressed in E.coli after 15 mins.
Assay [13] has as its target Mitogen-activated protein kinase 3 (Homo sapiens, UniProt P27361). The experiment in a line: Inhibition of human recombinant ERK1 expressed in E.coli after 30 mins.
Assay [14] deals with HUVEC. The experiment in a line: Antiangiogenic activity against HUVEC co-cultured with vascular smooth muscle cells assessed as inhibition of tube formation at 11 uM after 72 hrs. The assay is classed as functional, cell-based. Particulars: Homo sapiens.
In assay [15] the test system is HUVEC. Nature of the assay: Antiangiogenic activity against HUVEC co-cultured with vascular smooth muscle cells assessed as inhibition of organotypic capillary network formation at 11 uM after 72 hrs. Type of assay: functional, cell-based. As to conditions: Homo sapiens.
Assay [16] concerns HUVEC. Nature of the assay: Antiangiogenic activity against HUVEC co-cultured with vascular smooth muscle cells assessed as inhibition of tube formation at 33 uM after 72 hrs. Type of assay: functional, cell-based. As to conditions: Homo sapiens.
In assay [17] the test system is HUVEC. Nature of the assay: Antiangiogenic activity against HUVEC co-cultured with vascular smooth muscle cells assessed as inhibition of organotypic capillary network formation at 33 uM after 72 hrs. The assay is classed as functional, cell-based. Particulars: Homo sapiens.
Assay [18] has as its target Glycogen synthase kinase-3 beta (Homo sapiens, UniProt P49841). The experiment in a line: Inhibition of human recombinant GSK3-beta in cell free system after 90 mins.
For assay [19], the target named is Mitogen-activated protein kinase 7 (Homo sapiens, UniProt Q13164). The experiment in a line: Inhibition of human recombinant ERK5 in cell free system after 90 mins.
The test system of assay [20] is HUVEC. The experiment in a line: Antiangiogenic activity against HUVEC co-cultured with vascular smooth muscle cells assessed as inhibition of tube formation upto 100 uM after 72 hrs. The assay is classed as functional, cell-based. Particulars: Homo sapiens.
For assay [21], the system named is HUVEC. Nature of the assay: Antiangiogenic activity against HUVEC co-cultured with vascular smooth muscle cells assessed as inhibition of organotypic capillary network formation upto 100 uM after 72 hrs. Type of assay: functional, cell-based. As to conditions: Homo sapiens.

Platelet-derived growth factor receptor alpha, sequence (P16234 whole entry): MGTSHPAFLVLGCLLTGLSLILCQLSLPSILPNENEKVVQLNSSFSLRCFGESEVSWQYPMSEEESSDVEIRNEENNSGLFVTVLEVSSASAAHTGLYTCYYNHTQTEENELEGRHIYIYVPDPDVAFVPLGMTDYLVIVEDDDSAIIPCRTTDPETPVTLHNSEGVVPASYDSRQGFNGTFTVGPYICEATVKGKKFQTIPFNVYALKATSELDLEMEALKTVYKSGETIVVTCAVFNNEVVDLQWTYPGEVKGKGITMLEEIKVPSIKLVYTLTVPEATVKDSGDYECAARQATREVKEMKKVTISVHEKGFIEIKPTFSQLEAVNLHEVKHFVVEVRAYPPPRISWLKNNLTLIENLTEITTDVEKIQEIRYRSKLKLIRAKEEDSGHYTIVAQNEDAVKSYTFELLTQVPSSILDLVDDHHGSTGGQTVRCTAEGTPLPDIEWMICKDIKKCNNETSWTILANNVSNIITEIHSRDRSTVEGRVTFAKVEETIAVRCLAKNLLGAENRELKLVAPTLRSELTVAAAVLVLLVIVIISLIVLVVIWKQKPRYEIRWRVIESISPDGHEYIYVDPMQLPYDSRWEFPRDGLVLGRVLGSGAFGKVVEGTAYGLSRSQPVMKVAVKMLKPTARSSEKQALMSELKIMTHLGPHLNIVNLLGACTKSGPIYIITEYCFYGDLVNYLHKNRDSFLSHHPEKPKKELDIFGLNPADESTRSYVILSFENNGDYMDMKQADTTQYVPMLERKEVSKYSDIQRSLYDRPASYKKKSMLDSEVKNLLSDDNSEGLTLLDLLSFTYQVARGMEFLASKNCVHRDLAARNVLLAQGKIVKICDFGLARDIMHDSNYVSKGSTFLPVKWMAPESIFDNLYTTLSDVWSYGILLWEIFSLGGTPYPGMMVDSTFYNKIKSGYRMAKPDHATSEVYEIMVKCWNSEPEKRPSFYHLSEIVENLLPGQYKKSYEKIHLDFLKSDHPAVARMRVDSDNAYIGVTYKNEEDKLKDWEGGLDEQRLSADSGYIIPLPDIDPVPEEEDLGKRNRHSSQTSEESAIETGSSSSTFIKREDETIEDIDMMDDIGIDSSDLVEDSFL
Vascular endothelial growth factor receptor 3, sequence (P35916 whole entry): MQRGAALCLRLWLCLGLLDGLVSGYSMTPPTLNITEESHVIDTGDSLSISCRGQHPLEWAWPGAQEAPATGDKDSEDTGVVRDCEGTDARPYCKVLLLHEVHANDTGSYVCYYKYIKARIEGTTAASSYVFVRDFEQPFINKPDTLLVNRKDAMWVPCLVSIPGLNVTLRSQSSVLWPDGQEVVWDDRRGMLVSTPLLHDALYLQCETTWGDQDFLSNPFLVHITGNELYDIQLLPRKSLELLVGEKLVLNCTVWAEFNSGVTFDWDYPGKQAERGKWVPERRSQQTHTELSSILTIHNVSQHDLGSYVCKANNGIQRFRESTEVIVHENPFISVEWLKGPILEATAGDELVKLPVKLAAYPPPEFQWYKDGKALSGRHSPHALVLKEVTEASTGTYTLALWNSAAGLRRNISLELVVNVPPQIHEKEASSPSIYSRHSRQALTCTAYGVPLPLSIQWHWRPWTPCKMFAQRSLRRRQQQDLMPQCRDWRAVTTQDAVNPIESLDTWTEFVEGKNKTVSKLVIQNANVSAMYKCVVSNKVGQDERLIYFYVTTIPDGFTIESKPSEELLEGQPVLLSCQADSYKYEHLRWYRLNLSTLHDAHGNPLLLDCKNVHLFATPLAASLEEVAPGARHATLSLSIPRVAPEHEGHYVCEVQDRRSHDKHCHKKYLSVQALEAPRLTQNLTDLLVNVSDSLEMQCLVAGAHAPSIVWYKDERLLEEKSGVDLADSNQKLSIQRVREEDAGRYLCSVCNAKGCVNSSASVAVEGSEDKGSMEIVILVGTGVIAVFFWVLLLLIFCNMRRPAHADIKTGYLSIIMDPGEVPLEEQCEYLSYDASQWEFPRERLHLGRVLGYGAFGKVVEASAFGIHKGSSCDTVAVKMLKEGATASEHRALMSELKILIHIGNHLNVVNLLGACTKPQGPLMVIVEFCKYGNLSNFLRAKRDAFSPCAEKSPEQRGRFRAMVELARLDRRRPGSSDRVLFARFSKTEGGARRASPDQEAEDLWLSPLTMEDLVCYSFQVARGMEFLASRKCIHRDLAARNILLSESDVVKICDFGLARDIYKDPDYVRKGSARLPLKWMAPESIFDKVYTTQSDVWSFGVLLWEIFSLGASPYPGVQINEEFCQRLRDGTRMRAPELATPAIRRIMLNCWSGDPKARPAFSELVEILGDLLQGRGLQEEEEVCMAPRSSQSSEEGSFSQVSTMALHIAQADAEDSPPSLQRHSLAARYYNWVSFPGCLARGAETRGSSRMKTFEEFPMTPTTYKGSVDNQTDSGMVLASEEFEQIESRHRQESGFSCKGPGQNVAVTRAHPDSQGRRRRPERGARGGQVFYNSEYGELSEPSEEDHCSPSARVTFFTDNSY
Dual specificity mitogen-activated protein kinase kinase 1, sequence (Q02750 whole entry): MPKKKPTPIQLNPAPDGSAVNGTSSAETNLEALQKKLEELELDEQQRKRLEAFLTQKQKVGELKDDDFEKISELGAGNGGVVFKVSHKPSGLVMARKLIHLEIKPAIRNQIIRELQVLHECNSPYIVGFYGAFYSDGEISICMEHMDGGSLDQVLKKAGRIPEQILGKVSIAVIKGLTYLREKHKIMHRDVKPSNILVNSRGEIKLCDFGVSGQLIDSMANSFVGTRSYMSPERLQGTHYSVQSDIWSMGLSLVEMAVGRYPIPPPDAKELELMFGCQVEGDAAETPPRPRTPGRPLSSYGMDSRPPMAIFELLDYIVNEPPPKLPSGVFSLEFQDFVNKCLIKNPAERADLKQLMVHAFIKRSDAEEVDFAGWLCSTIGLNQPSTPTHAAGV
Platelet-derived growth factor receptor beta, sequence (P09619 whole entry): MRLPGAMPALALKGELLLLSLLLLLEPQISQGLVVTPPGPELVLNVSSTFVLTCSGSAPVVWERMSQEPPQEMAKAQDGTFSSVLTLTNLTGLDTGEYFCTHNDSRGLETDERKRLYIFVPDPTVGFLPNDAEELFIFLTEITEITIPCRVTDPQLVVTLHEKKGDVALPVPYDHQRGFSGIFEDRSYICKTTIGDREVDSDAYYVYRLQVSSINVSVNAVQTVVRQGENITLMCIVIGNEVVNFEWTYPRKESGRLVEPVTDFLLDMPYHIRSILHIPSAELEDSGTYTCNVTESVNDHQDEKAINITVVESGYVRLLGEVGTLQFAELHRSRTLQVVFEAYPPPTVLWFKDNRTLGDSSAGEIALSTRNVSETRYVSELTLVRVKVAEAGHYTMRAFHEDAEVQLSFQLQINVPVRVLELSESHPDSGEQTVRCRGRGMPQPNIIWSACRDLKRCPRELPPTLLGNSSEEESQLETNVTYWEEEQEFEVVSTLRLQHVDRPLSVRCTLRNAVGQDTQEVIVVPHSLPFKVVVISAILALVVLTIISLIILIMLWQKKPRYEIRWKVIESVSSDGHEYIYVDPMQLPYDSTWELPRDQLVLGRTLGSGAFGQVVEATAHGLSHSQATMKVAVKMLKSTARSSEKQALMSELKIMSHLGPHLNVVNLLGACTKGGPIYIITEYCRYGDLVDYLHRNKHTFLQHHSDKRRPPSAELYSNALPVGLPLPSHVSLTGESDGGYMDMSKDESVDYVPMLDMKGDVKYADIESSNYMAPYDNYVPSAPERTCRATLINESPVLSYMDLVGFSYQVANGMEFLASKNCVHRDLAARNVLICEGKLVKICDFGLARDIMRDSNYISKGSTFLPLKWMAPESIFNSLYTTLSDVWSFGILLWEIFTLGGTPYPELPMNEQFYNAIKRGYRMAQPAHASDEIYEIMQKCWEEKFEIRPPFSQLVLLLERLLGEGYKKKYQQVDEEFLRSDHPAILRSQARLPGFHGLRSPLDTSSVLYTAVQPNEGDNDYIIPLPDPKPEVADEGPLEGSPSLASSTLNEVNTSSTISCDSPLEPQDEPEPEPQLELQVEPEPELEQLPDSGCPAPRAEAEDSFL
Mitogen-activated protein kinase 3, sequence (P27361 whole entry): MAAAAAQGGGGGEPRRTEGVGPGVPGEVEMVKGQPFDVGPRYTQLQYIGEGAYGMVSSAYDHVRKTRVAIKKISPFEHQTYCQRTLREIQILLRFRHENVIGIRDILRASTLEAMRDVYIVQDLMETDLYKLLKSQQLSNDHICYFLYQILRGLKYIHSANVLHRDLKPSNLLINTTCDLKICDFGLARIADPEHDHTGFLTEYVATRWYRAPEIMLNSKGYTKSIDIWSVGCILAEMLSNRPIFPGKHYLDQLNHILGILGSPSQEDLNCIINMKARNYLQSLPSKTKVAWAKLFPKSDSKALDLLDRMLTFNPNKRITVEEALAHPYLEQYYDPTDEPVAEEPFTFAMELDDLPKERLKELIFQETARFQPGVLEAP
Glycogen synthase kinase-3 alpha, sequence (P49840 whole entry): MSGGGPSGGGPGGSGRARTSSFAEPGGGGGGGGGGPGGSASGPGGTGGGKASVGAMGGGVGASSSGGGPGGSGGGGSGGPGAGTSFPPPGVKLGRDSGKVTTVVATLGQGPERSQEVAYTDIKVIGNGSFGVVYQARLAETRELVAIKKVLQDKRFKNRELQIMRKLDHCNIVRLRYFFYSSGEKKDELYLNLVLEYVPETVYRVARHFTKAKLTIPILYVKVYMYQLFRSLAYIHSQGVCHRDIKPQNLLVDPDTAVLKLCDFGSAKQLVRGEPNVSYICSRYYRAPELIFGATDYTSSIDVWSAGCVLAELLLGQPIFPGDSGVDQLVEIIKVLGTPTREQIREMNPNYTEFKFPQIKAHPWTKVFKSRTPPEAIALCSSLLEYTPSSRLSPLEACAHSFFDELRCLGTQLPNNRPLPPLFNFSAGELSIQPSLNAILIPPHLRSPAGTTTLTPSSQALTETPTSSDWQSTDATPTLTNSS

On to `COc1cc(O)c2c(c1)/C=C/CCCC(=O)C[C@H](Br)C[C@H](C)OC2=O`, for which the IC50 – broadly, the midpoint of a concentration-inhibition curve – in assay [1] is > 100 µM; in assay [2], 2.8 µM; in [3] it was 11.7 µM; in assay [4] it was > 100 µM; in [5], 9.7 µM.

For the compound `COc1cc(O)c2c(c1)/C=C\CCCC(=O)C[C@H](Br)C[C@H](C)OC2=O`, the IC50 in [2] was 81 µM; in [3], 6.1 µM; in assay [4], 24 µM; in assay [5], 7.5 µM.

Consider `COc1cc(O)c2c(c1)CCCCCC(=O)C[C@H](Br)C[C@H](C)OC2=O`, for which the IC50 was 11 µM in assay [2]; 11.4 µM in assay [3]; 4.3 µM in assay [4]; 9.7 µM in [5]; > 100 µM in [6].

Turning to `COc1cc(O)c2c(c1)/C=C\CCCC(=O)C[C@H](Cl)C[C@H](C)OC2=O`, the IC50 in assay [7] was > 100 µM; in [2] it was 100 µM; in [3], 9.5 µM; in [4], 82 µM; in assay [5], 8.8 µM.

Regarding `COc1cc(O)c2c(c1)/C=C\CCCC(=O)/C=C/C[C@H](C)OC2=O`, the IC50 in assay [8] was > 100 µM; in [7], 1.6 µM; in assay [1], > 100 µM; in assay [2], 1.4 µM; in [3] it was 19.5 µM; in [4], 2.3 µM. The IC50 in assay [9] came out at 0.45 µM; in [5] it was 15.4 µM; in [10] it was 0.59 µM; in [6], 15 µM.

Turning to `COc1cc(O)c2c(c1)CCCCCC(=O)/C=C/C[C@H](C)OC2=O`, the IC50 in [8] is 12 µM; in [7], 0.72 µM; in assay [11], > 100 µM; in [2], 1.3 µM; in assay [12], > 100 µM; in assay [3], 13 µM. In addition, the IC50 in [4] is 0.31 µM; in [9], 0.089 µM; in assay [5], 9.7 µM; in assay [10], 0.33 µM; in [6], 33 µM; in assay [13], > 100 µM. Also, the outcome in assay [14] and in assay [15] was Active.

Take `COc1cc(O)c2c(c1)/C=C/CCCC(O)C[C@H](Cl)C[C@H](C)OC2=O` (some centres not stated): the result in assay [16] and in assay [17] was Active.

Turning to `COc1cc(O)c2c(c1)CCCCCC(=O)C[C@H](Cl)C[C@H](C)OC2=O`, the IC50 in [2] is 47 µM; in assay [3], 10.6 µM; in assay [4], 93 µM; in [5], 8.4 µM.

On to `COc1cc(O)c2c(c1)/C=C/CCCC(=O)/C=C/C[C@H](C)OC2=O`, for which the IC50 in [8] was 22 µM; in assay [7] it was 1.4 µM; in assay [1], 9.2 µM; in assay [18], > 100 µM; in [11] it was > 100 µM; in assay [2], 1.3 µM. Further, the IC50 in assay [12] was > 100 µM; in assay [3], 11 µM; in assay [4] it was 1 µM; in assay [9] it was 0.027 µM; in [5] it was 8.9 µM; in assay [10] it was 0.33 µM. The IC50 in assay [6] is 51 µM; in assay [13], > 100 µM.

In the case of `COc1cc(O)c2c(c1)/C=C/CCCC(=O)C[C@H](Cl)C[C@H](C)OC2=O`, the IC50 in [7] was > 100 µM; in assay [2] it was > 100 µM; in assay [3] it was 10.9 µM; in assay [5] it was 9.2 µM.

Turning to `COc1cc(O)c2c(c1)/C=C/C[C@@H](O)[C@H](O)C(=O)/C=C\C[C@H](C)OC2=O`, the IC50 in assay [8] is 0.002 µM; in assay [7] it was 0.0005 µM; in [18] it was 18 µM; in assay [19], > 100 µM; in assay [11], 1.9 µM; in [2] it was 0.0096 µM. In addition, the concentration for half-maximal inhibition (IC50) in assay [12] came out at 1.3 µM; in assay [3] it was 7 µM; in assay [4], 0.00049 µM; in [9], 0.00024 µM; in assay [5] it was 5.5 µM; in assay [10], 0.0049 µM. Further, the figures for the IC50 in [6] and in assay [13] were 0.012 µM and 1.4 µM, respectively.

Take `COc1cc(O)c2c(c1)CCCCCC(=O)/C=C\C[C@H](C)OC2=O`: the IC50 is 17 µM in assay [8]; 1.2 µM in assay [7]; 4.1 µM in assay [2]; 26 µM in [3]; 0.54 µM in [4]; 0.44 µM in assay [9]. Further, the IC50 was 11 µM in assay [5], 0.85 µM in assay [10] and > 100 µM in assay [6].

Turning to `COc1cc(O)c2c(c1)CCCCCC(=O)CCC[C@H](C)OC2=O`, the outcome in assay [20] and in [21] was inactive.
